The term IC50 denotes the concentration that inhibits the measured activity by half. Low readings indicate higher potency, high ones lower potency.

This assay deals with T1, EGFR LRCS (BaF3-LRCS cell line) (Homo sapiens, UniProt P00533, C797S/L858R).
T1 construct: host or cells: BaF3-LRCS cell line (kept under puromycin selection)
T1 sequence (P00533 25-1210 C797S/L858R): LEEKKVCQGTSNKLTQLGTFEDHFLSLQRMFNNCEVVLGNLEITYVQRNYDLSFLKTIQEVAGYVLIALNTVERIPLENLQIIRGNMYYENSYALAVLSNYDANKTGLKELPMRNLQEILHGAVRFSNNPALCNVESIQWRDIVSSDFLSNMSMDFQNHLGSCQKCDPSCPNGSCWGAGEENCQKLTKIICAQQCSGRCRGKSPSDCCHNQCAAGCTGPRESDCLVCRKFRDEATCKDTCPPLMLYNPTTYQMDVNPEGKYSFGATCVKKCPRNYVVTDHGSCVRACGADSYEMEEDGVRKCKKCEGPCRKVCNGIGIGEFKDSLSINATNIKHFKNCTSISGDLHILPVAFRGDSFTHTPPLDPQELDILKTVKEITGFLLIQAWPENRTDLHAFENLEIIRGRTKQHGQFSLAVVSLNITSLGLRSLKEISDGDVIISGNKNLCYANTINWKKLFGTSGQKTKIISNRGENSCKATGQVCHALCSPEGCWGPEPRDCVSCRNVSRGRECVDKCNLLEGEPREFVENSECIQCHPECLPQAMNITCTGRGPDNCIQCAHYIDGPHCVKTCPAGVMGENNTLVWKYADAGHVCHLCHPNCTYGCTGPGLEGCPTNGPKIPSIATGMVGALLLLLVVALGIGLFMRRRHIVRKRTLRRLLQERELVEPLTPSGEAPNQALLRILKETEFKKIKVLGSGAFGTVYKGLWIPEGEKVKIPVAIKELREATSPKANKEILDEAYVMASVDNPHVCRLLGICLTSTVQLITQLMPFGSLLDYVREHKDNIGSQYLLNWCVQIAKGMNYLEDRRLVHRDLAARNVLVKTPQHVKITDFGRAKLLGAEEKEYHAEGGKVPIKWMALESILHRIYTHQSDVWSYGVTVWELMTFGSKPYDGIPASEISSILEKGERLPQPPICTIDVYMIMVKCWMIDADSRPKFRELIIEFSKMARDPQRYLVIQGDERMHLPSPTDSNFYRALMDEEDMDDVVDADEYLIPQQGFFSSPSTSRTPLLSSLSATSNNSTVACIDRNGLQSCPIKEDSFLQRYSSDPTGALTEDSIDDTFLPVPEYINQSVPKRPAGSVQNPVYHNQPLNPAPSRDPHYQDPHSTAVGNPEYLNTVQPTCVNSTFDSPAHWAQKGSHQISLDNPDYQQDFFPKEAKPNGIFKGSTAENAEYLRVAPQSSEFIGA
Kind of assay: HTRF Phospho EGFR LRCS assay (cellular). Format: cell-based. The conditions noted are these: BaF3-LRCS cells, 4 hours incubation, Phospho-EGFR HTRF readout. The method, then: HTRF Phospho EGFR LRCS assay (cellular)
BaF3-LRCS cell line were obtained from Crownbio (San Diego, CA, USA). Cells were maintained at 37° C., 5% C02 in RPMI ATCC (Gibco 31870)+2 mM Glutamine+0.5 μg/ml Puromycin supplemented with 10% fetal bovine serum (FBS) (Gibco).
Cells are transferred as above to Greiner Bio-One, Nr. 784-08 micro-titerplate at 20000 cells/well in 12.5 μl of growth medium/well after the plates had been pre-filled with 12.5 nl of DMSO solutions of the to be tested compounds (in dose response) or DMSO only. After spinning the plates at 300×g for 30 seconds the cells were incubated for 4 hours at 37 C, 5% CO2, 95% humidity. The cells were lysed by adding to the compound mix 4 µl/well of the supplemented lysis buffer (Cis-bio, Phospho-EGFR HTRF kit, 64EG1PEH), followed by incubation for 30 min at room temperature with shaking (400 rpm). The plates were then frozen and stored overnight at −80° C. On the next day and after thawing the plates, 4 μl of a mixture of anti-Phospho-EGFR Cryptate and of anti-Phospho-EGFR-d2 antibody solutions prepared in the supplied detection buffer was added to each well. The lidded plates were then incubated for 4 h at room temperature before reading the fluorescence emission at 616 and 665 nm using an Envision reader (Perkin Elmer). Data was analyzed in similar fashion as above using the normalized ratio of the 665 to 616 signals multiplied by 10000.
On the technique in general: In TR-FRET formats the signal depends on donor and acceptor labels being close together.
The compound `Cc1c(-c2ccc(N3CCOCC3)cc2)cc(C(F)F)c2cn(C(C(=O)Nc3nccs3)c3ncn4c3CCC43CC3)nc12` (stereo not drawn) [Example 1, 2-[4-(Difluoromethyl)-7-methyl-6-(4-morpholinophenyl)indazol-2-yl]-2-spiro[6,7-dihydropyrrolo[1,2-c]imidazole-5,1′-cyclopropane]-1-yl-N-thiazol-2-yl-acetamide] came in with an IC50 of 20 nM.

On to `Cc1c(-c2ccc(N3CCOCC3)cc2)cc(C(F)(F)F)c2cn(C(C(=O)Nc3nccs3)c3ncn4c3CCC43CC3)nc12` (stereo not drawn) [Example 2, 2-[7-Methyl-6-(4-morpholinophenyl)-4-(trifluoromethyl)indazol-2-yl]-2-spiro[6,7-dihydropyrrolo[1,2-c]imidazole-5,1′-cyclopropane]-1-yl-N-thiazol-2-yl-acetamide], for which inhibition was half-maximal at 45 nM (IC50).

`Cc1c(-c2ccc(N3CCOCC3)cc2)cc(C(F)(F)F)c2cn(C(C(=O)Nc3nccs3)c3ncn4c3CCC4(C)C)nc12` (stereo not drawn) [Example 3, 2-(5,5-Dimethyl-6,7-dihydropyrrolo[1,2-c]imidazol-1-yl)-2-[7-methyl-6-(4-morpholinophenyl)-4-(trifluoromethyl)indazol-2-yl]-N-thiazol-2-yl-acetamide] displayed an IC50 of 45 nM.

Values taken from patent publication US20250313565A1, “NEW INDAZOLE DERIVATIVES” (Hoffmann-La Roche Inc., priority 2022, published 2025).
